Results on 8 molecules are retold here after patent US20050004038A1, “Bivalent inhibitors of Glutathione-S-Transferases” (priority 2003, published 2005).

Values joined by “and” are separate entries in the source; they are usually repeats but may differ in a detail not shown here. Identical values can stand only once. Like-named read-outs stand apart in the source and are kept apart here.

Test [1] relates to human kidney 293 fibroblasts transfected with the IRES vector (no GST P1-1). Description: Cell killing by hypericin photodynamic treatment, IRES vector control cells. The test is classed as cell-based. The procedure:
(§1) Cells used in the assay were human kidney 293 fibroblasts transfected with the IRES vector plus and minus the coding region for human GST P1-1. Cells were cultured in DMEM supplemented with 10% FBS and 1% penicillin-streptomycin and maintained at 37° C. and 5% CO2.
(§2) Once the cells reached 80% confluency, the original media was removed and replaced with either (a) fresh media alone; (b) fresh media containing 1 uM hypericin (a porphyrin analogue employed in photodynamic cancer therapy), (c) the desired concentration of GST inhibitor IVg^, and (d) 1 μM hypericin plus the inhibitor 1 μM IVg^. The cells were incubated for a further 24 hours, in the dark, to allow the hypericin to be incorporated. The media from each plate was then removed and placed into a corresponding 15 ml centrifuge tube. This media is saved to monitor the “floater” cells that may have sloughed off during manipulations and treatment. The attached cells were washed two times with 1×PBS and fresh media is added back to the plates. The plates which were incubated overnight in the presence of hypericin were overlayed with DMEM without the phenol red indicator dye or 1×PBS supplemented with 10% FBS. […]
(§3) Following light treatment, cells were trypsinized, removed to their corresponding 15 ml tubes and maintained on ice until analyzed via flow cytometry.

Test [2] has as its system human kidney 293 fibroblasts overexpressing human GST P1-1. Description: Cell killing by hypericin photodynamic treatment, GST P1-1 overexpressing cells. It counts as cell-based. The settings on record: GSTP cells. The procedure:
as §1, §2, §3

Test [3] has as its target T1, human glutathione S-transferase P1-1 (GSTP1-1) (Homo sapiens, UniProt P09211).
T1 construct: made in house; host or cells: E. coli
Description: CDNB assay of GST activity and inhibition, GST P1-1. It counts as biochemical. The following applies: for IC50: first value of the cell GSTP1-1/GSTA1-1, CDNB assay, 20 nM GST. The procedure: (§4) GST isozymes. […] The enzyme was incubated with 10 mM dithiothreitol to ensure complete reduction of cysteine residues, followed by extensive dialysis to remove the reducing agent. […] Plasmodium GST (pGST) was a gift from Dr. Katja Becker (Justus Liebig University of Giessen), and murine GSTP and GSTA were gifts from Dr. Dave Eaton (University of Washington). Except where otherwise stated (i.e. testing of pGST in Example 6.4.5 and testing of murine GSTs in Example 6.4.7), GST isozymes tested were from human.
(§5) GST assays. Assays of GST activity and inhibition were performed with chloro-2,4-dinitrobenzene (CDNB) as the electrophilic substrate. Except where otherwise stated, GST concentration was 20 nM. […] Rates were determined by measuring absorption at 340 nm (λmax of glutathione-dinitrobenzene) for 1 minute on a Beckman DU 7400 spectrophotometer. For IC50 determinations, assays were performed at inhibitor concentrations ranging over at least […] (from 100-fold above the IC50 to 100-fold below). Data were fit to a sigmoidal dose-response function using GraphPad Prism to determine the 50% inhibitory concentration.

Test [4] has as its target T2, human glutathione S-transferase A1-1 (GSTA1-1) (Homo sapiens, UniProt P08263).
T2 construct: made in house; host or cells: E. coli
T2 sequence (P08263 1-222): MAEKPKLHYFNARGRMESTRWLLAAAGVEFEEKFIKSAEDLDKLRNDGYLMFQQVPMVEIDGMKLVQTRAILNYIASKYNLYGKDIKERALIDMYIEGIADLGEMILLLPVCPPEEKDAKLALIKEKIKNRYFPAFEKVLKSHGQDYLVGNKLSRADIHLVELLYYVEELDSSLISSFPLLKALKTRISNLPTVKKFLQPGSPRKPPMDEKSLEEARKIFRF
Description: CDNB assay of GST activity and inhibition, GST A1-1. The test is classed as biochemical. The settings on record: second value of the cell GSTP1-1/GSTA1-1, 20 nM GST. The procedure:
as §4, §5

In test [5] the target is T3, Plasmodium GST (pGST) (Plasmodium falciparum, UniProt Q8ILQ7).
T3 construct: gift from Dr. Katja Becker (Justus Liebig University of Giessen)
T3 sequence (Q8ILQ7 1-211): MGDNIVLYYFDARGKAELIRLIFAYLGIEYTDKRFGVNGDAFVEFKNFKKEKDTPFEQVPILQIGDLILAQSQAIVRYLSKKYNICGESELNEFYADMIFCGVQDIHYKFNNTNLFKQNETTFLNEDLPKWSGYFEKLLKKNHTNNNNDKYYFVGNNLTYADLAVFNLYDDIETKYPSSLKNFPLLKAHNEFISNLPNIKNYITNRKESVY
Description: CDNB assay, Plasmodium GST. It counts as biochemical. The procedure:
as §4, §5
The IC50 values for pGST were determined for the bivalent compounds from Tables III and IV using the CDNB assay.

Test [6] addresses T4, GSTA1-1 (Homo sapiens, UniProt P08263).
T4 construct: made in house; host or cells: E. coli
T4 sequence (P08263 1-222): T2 sequence (P08263 1-222)
Description: GSH conjugation assay, absorbance changes at 270 nm, GSTA1-1. It counts as biochemical. The following applies: absorbance at 270 nm. From the text: (§6) Since EA is known to be enzymatically conjugated to GSH by GSTs, these bivalent inhibitors might be predicted to be potential substrates for GSTA1-1 or GSTP1-1, such that they would also be catalytically conjugated with GSH.

In test [7] the target is T2, human glutathione S-transferase A1-1 (GSTA1-1). The settings on record: from the prior art (Ploemen et al.); cited from earlier work.
The target of test [8] is T5, murine GSTP (Mus musculus, UniProt P19157).
T5 construct: gift from Dr. Dave Eaton (University of Washington)
T5 sequence (P19157 2-210 limits assumed): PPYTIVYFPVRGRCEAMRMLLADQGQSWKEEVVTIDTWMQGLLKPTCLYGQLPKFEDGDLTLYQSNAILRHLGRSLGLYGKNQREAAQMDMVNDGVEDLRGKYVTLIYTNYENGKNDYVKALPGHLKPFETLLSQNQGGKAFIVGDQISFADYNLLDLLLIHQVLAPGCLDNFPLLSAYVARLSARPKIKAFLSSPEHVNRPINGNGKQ
Description: CDNB assay, murine GSTP. The test is classed as biochemical. Here is the method: as §4, §5

Test [9] concerns chloroquine resistant Plasmodium falciparum strain Dd2. Description: Parasite growth inhibition, ring stages, 48 hours. The following applies: single dose, strain Dd2, 48 hours. The test is classed as cell-based. Here is the method:
(§7) A single dose of compound IVg^ was added to ring stages of chloroquine resistant Plasmodium falciparum strain Dd2 and incubated for 48 hours. […] An isobologram analysis was performed in two different chloroquine resistant parasites comparing IVg^ with chloroquine (AN143 with a PNG/South America genotype and INDO21 with the Indonesia genotype).

Test [10] relates to chloroquine resistant parasites AN143 and INDO21. Description: Isobologram analysis with chloroquine. It counts as cell-based, Plasmodium falciparum. The procedure:
as §7

In test [11] the test system is human kidney 293 fibroblasts. Description: IC50 of the bivalent inhibitor alone in the cell line. The test is classed as cell-based. The settings on record: +/−0.2 SD, read-out: IC50 of inhibitor for the cells. Here is the method: as §1
Once the cells reached 80% confluency, the original media was removed and replaced with either (a) fresh media alone; (b) fresh media containing 1 uM hypericin (a porphyrin analogue employed in photodynamic cancer therapy), (c) the desired concentration of GST inhibitor IVg^, and (d) 1 μM hypericin plus the inhibitor 1 μM IVg^. The cells were incubated for a further 24 hours, in the dark, to allow the hypericin to be incorporated. The media from each plate was then removed and placed into a corresponding 15 ml centrifuge tube. This media is saved to monitor the “floater” cells that may have sloughed off during manipulations and treatment. The attached cells were washed two times with 1×PBS and fresh media is added back to the plates. The plates which were incubated overnight in the presence of hypericin were overlayed with DMEM without the phenol red indicator dye or 1×PBS supplemented with 10% FBS.
as §3

For test [12], the target named is T6, GSTP1-1 (Homo sapiens, UniProt P09211).
T6 construct: made in house; host or cells: E. coli
T6 sequence (P09211 2-210 limits assumed): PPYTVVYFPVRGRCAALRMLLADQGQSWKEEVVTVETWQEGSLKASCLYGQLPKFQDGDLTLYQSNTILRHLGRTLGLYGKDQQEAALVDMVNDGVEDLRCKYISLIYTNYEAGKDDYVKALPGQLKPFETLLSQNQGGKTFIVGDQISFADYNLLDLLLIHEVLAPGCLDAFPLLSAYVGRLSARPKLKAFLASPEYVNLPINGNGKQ
Description: GSH conjugation assay, absorbance changes at 270 nm, GSTP1-1. It counts as biochemical. The settings on record: absorbance at 270 nm.
From the text: as §6

The mark [13] stands for this setting: 1 uM hypericin + 590 nm light, no inhibitor.
[14] abbreviates: CDNB assay, read-out: IC50 pGST.
[15] abbreviates: 1 μM inhibitor + 1 μM hypericin + 590 nm light.

T1 sequence (P09211 2-210 limits assumed): as above

Consider `Cc1cc(O)c2c(=O)c3c(O)cc(O)c4c5c(O)cc(O)c6c(=O)c7c(O)cc(C)c8c1c2c(c34)c(c78)c65` [hypericin, reference compound], for which the “Mean % Cell Death” value in test [1] (setting [13]) stood at 24.63%; in [2] (setting [13]) it was 11.27%.
As to `C=C(CC)C(=O)c1ccc(OCC(=O)NCCCC(=O)NCCCC(=O)NCCCC(=O)NCc2cc(CNC(=O)CCCNC(=O)CCCNC(=O)CCCNC(=O)COc3ccc(C(=O)C(=C)CC)c(Cl)c3Cl)cc(C(N)=O)c2)c(Cl)c1Cl` [IVi], the IC50 in test [3] is 142 nM; in test [4] it was 96.5 nM; in test [5], about 5500 nM.
With `C=C(CC)C(=O)c1ccc(OCC(=O)O)c(Cl)c1Cl` [IVk*, ethacrynic acid, reference compound], the “GSH conjugation by GSTA1-1” value in test [6] was “readily conjugated to GSH”. Also, in test [7], the IC50 was 5000 nM.
`C=C(CC)C(=O)c1ccc(OCC(=O)NCCCCCC(=O)NCc2cccc(CNC(=O)CCCCCNC(=O)COc3ccc(C(=O)C(=C)CC)c(Cl)c3Cl)c2)c(Cl)c1Cl` [IVg^]: the IC50 in [3] was 27 nM; in test [4], 64 nM; in test [5] (setting [14]), about 1500 nM; in test [8], 18 nM; in test [11] it was 1130 nM. In addition, the EC50 in test [9] stood at 412 nM. Further, the synergy with chloroquine result in test [10] is “No evidence of synergy”. Further, the “Mean % Cell Death” value in [1] (setting [15]) came to 20.27%; in test [2] (setting [15]), 22.53%.
With `C=C(CC)C(=O)c1ccc(OCC(=O)NCCCCCC(=O)NCc2cc(CNC(=O)CCCCCNC(=O)COc3ccc(C(=O)C(=C)CC)c(Cl)c3Cl)cc(C(N)=O)c2)c(Cl)c1Cl` [IVg], the IC50 in test [3] is 46.1 nM; in [4], 40.2 nM; in test [5] (setting [14]), about 3300 nM. The “GSH conjugation by GSTA1-1” value in test [6] is “no GSH conjugation”. In test [12], the “GSH conjugation by GSTP1-1” value is recorded as “no GSH conjugation”.
For the molecule `C=C(CC)C(=O)c1ccc(OCC(=O)NCc2cccc(CNC(=O)COc3ccc(C(=O)C(=C)CC)c(Cl)c3Cl)c2)c(Cl)c1Cl` [IVc^], the IC50 was 995 nM in [3], 25 nM in test [4] and 990 nM in test [8].
Turning to `NC(=O)c1cc(CNC(=O)CCCNCCS(=O)(=O)c2cccc(Nc3cc(S(=O)(=O)O)c(N)c4c3C(=O)c3ccccc3C4=O)c2)cc(CNC(=O)CCCNCCS(=O)(=O)c2cccc(Nc3cc(S(=O)(=O)O)c(N)c4c3C(=O)c3ccccc3C4=O)c2)c1` [IIIh], the IC50 in test [3] is ~22 nM and 22 nM; in test [4], over 1000 nM. In addition, the “fold greater affinity for GSTP1-1 (lower IC50) than the ligand domain alone” value in test [3] (versus corresponding ligand domain (GS-NB/IId, IIg, IIId, IVk)) was “approximately 220 fold”.
Turning to `C=C(CC)C(=O)c1ccc(OCC(=O)NCC(=O)NCc2cc(CNC(=O)CNC(=O)COc3ccc(C(=O)C(=C)CC)c(Cl)c3Cl)cc(C(N)=O)c2)c(Cl)c1Cl` [IVd], the IC50 in [3] stood at 634 nM; in [4], 23 nM.

As usually defined, the IC50 is the midpoint of a concentration-inhibition curve. By EC50 is commonly meant the midpoint of the concentration-response curve. A high value points to a need for much substance.
